Data on 1 compound can be found in ChEMBL document CHEMBL1151664, “Antitumor agents, 75. Synthesis of cytotoxic anthraquinones digiferruginol and morindaparvin-B” (1985).

Converted amounts (≈) assume the structure as drawn.

The test system of this assay is KB. The experiment in a line: Cytotoxicity against human KB cells. The class given is functional. As to conditions: read-out: ED50 (the source's name).

Regarding `O=C1c2ccccc2C(=O)c2c1ccc(CO)c2O` [DIGIFERRUGINOL], the EC50 turned out to be 0.09 µg/mL (≈ 0.354 µM).
